Experiments:
[1] = biological target: human recombinant transporter protein dopamine (DAT) (Homo sapiens (Human), UniProt Q01959); experiment: radioligand binding assay, dopamine transporter; conditions: 11 test concentrations 0.1 nM to 1 μM, duplicates, hydrochloride salts
Protocol: (§1) The monoamine transporters inhibitory activities of selected cycloalkylmethylamines of Formula (I) are reported herein. The compounds were evaluated using well established radioligand binding assays protocols (Galli, A. et al., J. Exp. Biol. 1995, 198, 2197-2212; Giros, B. et al., Trends Pharmcol. Sci. 1993, 14, 43-49; Gu, H. et al., J. Biol. Chem. 1994, 269(10), 7124-7130; Shearman, L. P. et al, Am. J. Physiol., 1998, 275(6 Pt 1), C1621-1629; Wolf, W. A. et al., J. Biol. Chem. 1992, 267(29), 20820-20825). The human recombinant transporter proteins dopamine (DAT), norepinephrine (NET) and serotonin (SERT) were selected for the in vitro assays. The radioligand binding assays were carried out at 11 different test concentrations 0.1 nM to 1 μM.
(§2) The assays were carried out in duplicates and the quantitative data are reported as Ki in the Table 1.

[2] = biological target: human recombinant transporter protein serotonin (SERT) (Homo sapiens (Human), UniProt P31645); experiment: radioligand binding assay, serotonin transporter; conditions: 11 test concentrations 0.1 nM to 1 μM, duplicates, hydrochloride salts
Protocol: as §1, §2

[3] = biological target: human recombinant transporter protein norepinephrine (NET) (Homo sapiens (Human), UniProt P23975); experiment: radioligand binding assay, norepinephrine transporter; conditions: 11 test concentrations 0.1 nM to 1 μM, duplicates, hydrochloride salts
human recombinant transporter protein norepinephrine (NET), sequence (P23975 whole entry): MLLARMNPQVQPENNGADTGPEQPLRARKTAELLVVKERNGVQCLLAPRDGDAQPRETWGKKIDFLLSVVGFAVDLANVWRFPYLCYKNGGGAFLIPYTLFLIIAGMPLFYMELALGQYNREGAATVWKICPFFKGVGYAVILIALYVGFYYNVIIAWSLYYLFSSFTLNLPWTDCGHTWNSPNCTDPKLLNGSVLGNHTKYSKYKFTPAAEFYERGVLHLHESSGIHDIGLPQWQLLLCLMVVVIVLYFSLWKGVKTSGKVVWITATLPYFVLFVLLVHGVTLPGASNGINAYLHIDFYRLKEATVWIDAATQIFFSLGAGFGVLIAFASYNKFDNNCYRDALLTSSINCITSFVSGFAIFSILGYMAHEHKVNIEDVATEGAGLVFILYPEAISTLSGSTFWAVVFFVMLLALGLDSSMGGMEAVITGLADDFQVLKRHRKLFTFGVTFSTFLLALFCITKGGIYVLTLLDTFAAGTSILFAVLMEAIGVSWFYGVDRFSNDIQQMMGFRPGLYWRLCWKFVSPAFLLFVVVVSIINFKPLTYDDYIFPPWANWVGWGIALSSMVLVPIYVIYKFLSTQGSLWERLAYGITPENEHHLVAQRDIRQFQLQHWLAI
Protocol: as §1, §2

[4] = active metabolites of sibutramine; cited from earlier work

human recombinant transporter protein dopamine (DAT), sequence (Q01959 whole entry): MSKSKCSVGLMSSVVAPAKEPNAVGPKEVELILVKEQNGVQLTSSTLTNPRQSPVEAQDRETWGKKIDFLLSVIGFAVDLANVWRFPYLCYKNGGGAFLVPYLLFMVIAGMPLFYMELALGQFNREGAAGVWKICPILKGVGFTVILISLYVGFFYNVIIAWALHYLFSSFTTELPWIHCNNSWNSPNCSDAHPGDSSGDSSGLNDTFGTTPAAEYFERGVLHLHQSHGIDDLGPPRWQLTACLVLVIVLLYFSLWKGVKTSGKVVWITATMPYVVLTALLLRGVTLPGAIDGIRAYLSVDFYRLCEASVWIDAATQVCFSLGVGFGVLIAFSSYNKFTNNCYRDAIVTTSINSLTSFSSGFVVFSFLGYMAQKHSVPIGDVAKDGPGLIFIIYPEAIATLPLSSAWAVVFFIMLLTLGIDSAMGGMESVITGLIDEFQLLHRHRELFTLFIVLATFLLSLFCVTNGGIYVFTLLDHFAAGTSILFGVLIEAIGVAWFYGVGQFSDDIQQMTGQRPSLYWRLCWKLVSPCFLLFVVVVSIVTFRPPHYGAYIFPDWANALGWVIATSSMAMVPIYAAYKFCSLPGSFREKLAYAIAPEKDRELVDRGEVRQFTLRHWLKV

SMILES	Ki [1]	Ki [2]	Ki [3]	elimination half-life [4]
CCOCCCCNC(CC(C)C)C1(c2ccc(SC)cc2)CCC1 (centres unmarked) [Compound 7g, N-(4-Ethoxybutyl)-3-methyl-1-(1-(4-(methylthio)phenyl)cyclobutyl)butan-1-amine]	92 nM	2.99 nM	37.2 nM	–
CCOCCNC(CC(C)C)C1(c2ccc(Cl)c(Cl)c2)CCC1 (centres unmarked) [Compound 8a, 1-(1-(3,4-Dichlorophenyl)cyclobutyl)-N-(2-ethoxyethyl)-3-methylbutan-1-amine]	2.38 nM	1.4 nM	46.7 nM	–
CCCOCCCN[C@H](CC(C)C)C1(c2ccc(Cl)c(Cl)c2)CCC1 [Compound 8d, (R)-1-(1-(3,4-Dichlorophenyl)cyclobutyl)-N-(3-propoxypropyl)-3-methylbutan-1-amine]	5.45 nM	3.8 nM	72 nM	–
COCCCCN[C@H](CC(C)C)C1(c2ccc(Cl)c(Cl)c2)CCC1 [Compound 8h, (R)-1-(1-(3,4-Dichlorophenyl)cyclobutyl)-N-(4-methoxybutyl)-3-methylbutan-1-amine]	2.39 nM	1.19 nM	12.7 nM	–
CCOCCCCN[C@H](CC(C)C)C1(c2ccc(Cl)c(Cl)c2)CCC1 [Compound 8j, (R)-1-(1-(3,4-Dichlorophenyl)cyclobutyl)-N-(4-ethoxybutyl)-3-methylbutan-1-amine]	1.16 nM	0.8 nM	11 nM	–
CCSCCCCNC(CC(C)C)C1(c2ccc(Cl)cc2)CCC1 (centres unmarked) [Compound 12b, 1-(1-(4-Chlorophenyl)cyclobutyl)-N-(4-(ethylthio)butyl)-3-methylbutan-1-amine]	67.6 nM	18.8 nM	51.9 nM	–
CCOc1ccc(C2(C(CC(C)C)NCCSCC)CCC2)cc1 (centres unmarked) [Compound 12c, 1-(1-(4-Ethoxyphenyl)cyclobutyl)-N-(2-(ethylthio)ethyl)-3-methylbutan-1-amine]	116 nM	3.31 nM	1420 nM	–
CCSCCCCNC(CC(C)C)C1(c2ccc(Cl)c(Cl)c2)CCC1 (centres unmarked) [Compound 13c, 1-(1-(3,4-Dichlorophenyl)cyclobutyl)-N-(4-(ethylthio)butyl)-3-methylbutan-1-amine]	23.9 nM	14.8 nM	17.1 nM	–
CCCCSCCCCNC(CC(C)C)C1(c2ccc(Cl)c(Cl)c2)CCC1 (centres unmarked) [Compound 13d, N-(4-(Butylthio)butyl)-1-(1-(3,4-dichlorophenyl)cyclobutyl)-3-methylbutan-1-amine]	104 nM	65.3 nM	51 nM	–
CCSCCNC(CC)C1(c2ccc(Cl)c(Cl)c2)CCC1 (centres unmarked) [Compound 13f, 1-(1-(3,4-dichlorophenyl)cyclobutyl)-N-(2-(ethylthio)ethyl)propan-1-amine]	49.2 nM	224 nM	119 nM	–
CCS(=O)(=O)CCCCNC(CC(C)C)C1(c2ccc(Cl)c(Cl)c2)CCC1 (centres unmarked) [Compound 17a, 1-(1-(3,4-Dichlorophenyl)cyclobutyl)-N-(4-(ethylsulfonyl)butyl)-3-methylbutan-1-amine]	29.4 nM	38.4 nM	44.7 nM	–
CNC(CC(C)C)C1(c2ccc(Cl)cc2)CCC1 (centres unmarked) [Compound M1]	–	–	–	14 h
CC(C)CC(N)C1(c2ccc(Cl)cc2)CCC1 (centres unmarked) [Compound M2]	–	–	–	16 h

Source: patent US9238625B2, “Compositions, synthesis, and methods of using phenylcycloalkylmethylamine derivatives” (Reviva Pharmaceuticals, Inc., priority 2011, dated 2016)
